“And” between values parts separate entries of the source, which are not always exact repeats. Identical values can stand only once. Marks after values point to notes of the source that are not given here.
Experiments:
[1] = tested on: ceramidase; assay: Ceramidase inhibition, enzymatic extract of PMA-activated HL60 cells, [14C]-C16 ceramide substrate; assay type: biochemical; conditions: 1 hour at 37° C., mean of triplicate
Experimental: HL60 cells activated with Phorbol 12-myristate 13-acetate (PMA) at 5 nM were cultured in 175 cm^2 flasks. […] The supernatant obtained after centrifugation constituted the enzymatic extract.
The substrate [^14C]—C16 ceramide (N-palmitoyl-D-Sphingosine) was prepared as follows:
Evaporation of the organic phase and dissolution in distilled water. […] After evaporation and addition of Triton and cholate, the purified substrate was solubilised in distilled water.
The reaction mixture was incubated at 37° C. during 1 hour. The reaction mixture consisted of 5 μl MgCl2 (50 mM), 25 μl enzymatic extract or buffer; 7.5 μl substrate and 12.5 μl product to be tested. The products to be tested were prepared 4× concentrated in buffer at the tested pH and contained 1% of ethanol in final.
The quantification of enzymatic degradation of substrate was realized by measuring of radioactivity in heptane phase. […] The mixture was vortexed and centrifuged at 12 000 g 5 minutes. […] Results are expressed as the % of control.

[2] = tested on: human keratinocytes; assay: Keratinocyte differentiation: involucrin by ELISA in primary culture of human keratinocytes; assay type: cell-based; conditions: for Involucrin (in % +/− SEM): 1 day incubation; for effect on the synthesis of the keratinocyte differentiation marker involucrin (in words): at the tested concentrations
Experimental: The purpose was to evaluate the potential of the products to stimulate the differentiation of human keratinocytes into corneocytes and therefore the formation of an optimal skin barrier. The products were tested on primary culture of human keratinocytes by measuring the quantity of synthesized involucrin through an ELISA method. Involucrin is a rod shaped protein of 68 kD released by keratinocytes of early spinous layers up to granular layer of human epidermis.
(§1) Human keratinocytes were seeded in growth medium (standard medium MCDB153 completed by Fetal Calf Serum at 2%). After 3-4 days of incubation at 37° C., CO2=5%, the growth medium was exchanged by standard medium MCDB153 without FCS (untreated control), and with a range of concentrations of products to be tested. After 1 day of incubation at 37° C., CO2=5%, the lack of cytotoxicity of the different product and doses tested was recorded using MTT test, and the level of involucrin was measured by an ELISA method.
The results are expressed in % versus control and presented as a mean+/−SEM (standard error of mean) of 2 or 3 assays (different donors of keratinocytes) in duplicate or triplicate.

[3] = tested on: human keratinocytes; assay: MTT test, viability of human keratinocytes; assay type: cell-based; conditions: at the concentrations tested for involucrin
Experimental: as §1

SMILES | Ceramidase activity in %/control ([1]; dose 5 μM) [%] | Ceramidase activity in %/control ([1]; dose 50 μM) [%] | Ceramidase activity in %/control ([1]; dose 500 μM) [%] | effect on the synthesis of the keratinocyte differentiation marker involucrin (in words) [2] | viability (MTT test) of the human keratinocytes [3] | also measured
CCCCCCCC/C=C\CCCCCCCCNCC(O)CO (stereo not shown) [N-oleyl-(3 amino-1,2-propanediol)] | 81 | 78 | 71 | – | – | –
[Ca+2].[Cl-].[Cl-] [CaCl2, Calcium chloride, reference compound] | – | – | – | significantly enhance | not significantly changed | Involucrin (in % +/− SEM) ([2]; CaCl2 dose 0.1 mM (Ca2+: 0.1 mM)): 21.9 +/− 5.3 ** %; Involucrin (in % +/− SEM) ([2]; dose 0.013 mM (Ca2+: 0.013 mM)): 3.4 +/− 4.6^ %; Involucrin (in % +/− SEM) ([2]; dose 0.026 mM (Ca2+: 0.026 mM)): −1.4 +/− 4.6 ^ %; Involucrin (in % +/− SEM) ([2]; dose 0.3 mM (Ca2+ 0.3 mM)): 84.4 +/− 1.9 *** %
CCCCCCCC/C=C\CCCCCCCCNCCO [N-Oleyl-ethanolamine, reference compound] | 98 | 94 | 79 | – | – | –
O.O.O.O.O=C([O-])CC(O)(CC(=O)[O-])C(=O)[O-].O=C([O-])CC(O)(CC(=O)[O-])C(=O)[O-].[Ca+2].[Ca+2].[Ca+2] [Tricalcium dicitrate tetrahydrate, Tricalcium citrate tetrahydrate] | – | – | – | significantly enhance | not significantly changed | effect on keratinocytes differentiation compared with Calcium chloride ([2]; at equimolar doses of Ca2+, p<0.001 for Ca2+ 0.026 and 0.1 mM): more potent; Involucrin (in % +/− SEM) ([2]; dose 0.0044 mM, 0.00025 % w/v (Ca2+: 0.013 mM)): 0.5 +/− 2.6^ % and 0.5 +/− 2.6%; Involucrin (in % +/− SEM) ([2]; dose 0.0088 mM, 0.00050 % w/v (Ca2+: 0.026 mM)): 31.6 +/− 2.9 *** %; Involucrin (in % +/− SEM) ([2]; dose 0.033 mM (Ca2+: 0.1 mM)): 73.4 +/− 3.7 *** %; Involucrin (in % +/− SEM) ([2]; tricalcium dicitrate dose 0.1 mM (Ca2+ 0.3 mM)): 101.7 +/− 7.2 *** %
